14 molecules from paper PMC9104508, “Antioxidant, Hypoglycemic and Molecular Docking Studies of Methanolic Extract, Fractions and Isolated Compounds from Aerial Parts of Cymbopogon citratus (DC.) Stapf” (Molecules, 2022) can be followed below.

One experiment relates to 3T3-L1 adipocytes. In words: Glucose uptake in 3T3-L1 adipocytes. The format is cell-based, mouse. How it is done: The 3T3-L1 preadipocytes were cultured and differentiated using the method described earlier with slight modifications. The 3T3-L1 preadipocytes were cultured in high glucose DMEM supplemented with 10% NBCS, 1% P/S, and then starved until the cells reached confluence (day 0). Two days later (day 2), the cells were induced for differentiation with high glucose DMEM supplemented with 10% FBS, 1% P/S, IBMX, DEX, Rosi, and insulin. On day 5, the medium was changed to high glucose DMEM containing 10% FBS, 1% P/S, and 100 nM insulin for one day (day 6). Then the cells were completely differentiated into mature adipocytes.
The glucose uptake test was carried out according to the procedure described in the paper. […] After 48 h of culture, the glucose uptake was measured according to the operating instructions of the glucose content determination kit. Following the glucose uptake test, the cell viability was determined using the CellTiter 96® aqueous cell proliferation test. […] Then the absorbance was measured using microplate reader at 490 nm after incubation at 37 °C for 4 h. The cell viability was calculated according to the following formula:Cell viability rate (%) = […] × 100 (3) A1 = the absorbance of the blank control, A2 = the absorbance of each fraction group, each compound group, or positive control group.

The nature of experiment [1]: DPPH free radical scavenging assay. The settings on record: compounds; 30 min, room temperature. Here is the method: (§1) The antioxidant activities of the crude extracts and isolated compounds were evaluated by implementing 2,2-diphenyl-1-picrylhydrazyl free radical scavenging (DPPH^+), 2,2’-azino-bis (3-ethylbenzothiazoline-6-sulphonic free radical scavenging (ABTS^+), and the ferric reducing antioxidant power (FRAP) assay.
The DPPH^+ assay was measured according to the previous report with slight modifications. […] The DPPH^+ was dissolved with anhydrous methanol to 0.1 mM.
Then 180 μL DPPH solution and 20 μL sample were mixed in each well of a 96-well plate and incubated for 30 min at room temperature in the dark. […] Ascorbic acid was used as a positive control. The DPPH^+ scavenging activity was calculated according to the following formula:Inhibition (%) = [1 − (A1 − A2)/(A3 − A4)] × 100(1) A1 = absorbance of the sample group with DPPH, A2 = absorbance of the sample control group without DPPH, A3 = absorbance of the control group with DPPH, and A4 = the absorbance of the blank control.
A general note: DPPH is a stable violet radical that fades when it is reduced.

The nature of experiment [2]: ABTS free radical scavenging assay (commercial kit, Trolox standard). The settings on record: compounds. Here is the method: as §1
(§2) ABTS^+ and FRAP assays were measured by commercial assay kits (Suzhou Comin Biotechnology Co., Ltd., Suzhou, China). The experimental method was determined according to the method used in the literature. The crude extracts and chemical compounds were dissolved in anhydrous ethanol at concentrations of 800 μg/mL and 40 μM. […] Trolox was used as a standard reference compound to quantitate ABTS^+ and FRAP capacity. The results were expressed in µmol Trolox/g or mol Trolox/mol. The standard curve was drawn using Trolox solutions at a range of concentrations.

A short description of experiment [3]: Ferric reducing antioxidant power (FRAP) assay (commercial kit, Trolox standard). The settings on record: compounds. How it is done: as §1, §2
In another experiment the target is α-glucosidase (Saccharomyces cerevisiae, UniProt P53341). The experiment can be described thus: α-Glucosidase inhibition assay (pNPG substrate). The experiment is classed as biochemical. The settings on record: for inhibition at 20 µM: read-out: α-Glucosidase Inhibitory Rate. Here is the method:
The α-glucosidase inhibitory activity was measured according to the procedure described in the paper, with slight modifications. […] Immediately, 40 μL PNPG (2.5 mM) was added to each well and reacted at 37 °C for 30 min. […] The total volume of the reaction system was 200 μL. The α-glucosidase inhibition activity was calculated according to the following formula:Inhibition (%) = [1 − (A1 − A2)/(A3 − A4)] × 100(2) A1 = the absorbance of the sample group with α-glucosidase, A2 = the absorbance of the sample control group without α-glucosidase, A3 = the absorbance of the control group without samples, and A4 = the absorbance of the blank control without samples and α-glucosidase.
Results were expressed as IC50 values calculated according to Prism7.0 software.

Usually IC50 stands for the concentration that gives 50% inhibition. Higher therefore signals lower potency.

Like-named read-outs stand apart in the source and are kept apart here. Marks after values point to notes of the source that are not given here.

α-glucosidase, sequence (P53341 whole entry): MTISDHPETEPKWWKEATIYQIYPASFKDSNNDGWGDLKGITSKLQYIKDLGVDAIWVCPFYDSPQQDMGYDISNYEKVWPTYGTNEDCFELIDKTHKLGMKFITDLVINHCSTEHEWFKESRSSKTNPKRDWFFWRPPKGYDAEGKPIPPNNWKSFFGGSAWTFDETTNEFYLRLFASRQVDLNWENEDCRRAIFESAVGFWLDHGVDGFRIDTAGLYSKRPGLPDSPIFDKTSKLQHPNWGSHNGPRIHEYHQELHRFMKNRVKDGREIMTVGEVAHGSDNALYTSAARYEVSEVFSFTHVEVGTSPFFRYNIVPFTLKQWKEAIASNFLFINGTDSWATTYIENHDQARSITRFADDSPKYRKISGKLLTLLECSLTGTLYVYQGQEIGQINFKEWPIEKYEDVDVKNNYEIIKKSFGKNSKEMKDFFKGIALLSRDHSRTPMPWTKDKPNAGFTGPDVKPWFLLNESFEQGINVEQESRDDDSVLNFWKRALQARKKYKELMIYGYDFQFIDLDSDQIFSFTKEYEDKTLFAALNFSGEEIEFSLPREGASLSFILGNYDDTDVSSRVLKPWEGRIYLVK

As to insulin, in the experiment with 3T3-L1 adipocytes (positive control group versus control group, p < 0.001), the “glucose uptake rates of 3T3-L1 adipocytes” value is “noticeably promoted”.

As to `O=C(/C=C/c1ccc(O)c(O)c1)OCC(O)COC(=O)/C=C/c1ccc(O)c(O)c1` [Compound 9, 1,3-O-dicaffeoylglycerol], in experiment [1], half-maximal inhibition (IC50) was put at 8.82 ± 1.12 µM. Besides, in experiment [2], the “ABTS Assay, Trolox equivalents” value is listed as 2.065 ± 0.050 ^bcd mol Trolox/mol. Moreover, the “FRAP Assay, Trolox equivalents” value in experiment [3] is 2.42 ± 0.10 ^a mol Trolox/mol. In addition, on α-glucosidase (at a concentration of 20 μM), the inhibition at 20 µM is 88.8%.

As to `C[C@H]1O[C@H](O[C@H]2[C@H](O)[C@@H](O)[C@@H](O[C@H]3[C@H](O)[C@@H](O)C(O)O[C@@H]3CO)O[C@@H]2CO)[C@H](O)[C@@H](O)[C@@H]1N[C@H]1C=C(CO)[C@@H](O)[C@H](O)[C@H]1O` (some centres unmarked) [Acarbose, reference compound], the “α-Glucosidase Inhibitory Rate” value at α-glucosidase (at a concentration of 20 μM) is given as 99.4 ± 0.0%.

In experiment [1], `O=c1cc(-c2ccc(O)c(O)c2)oc2cc(O[C@@H]3O[C@H](CO)[C@@H](O)[C@H](O)[C@H]3O)cc(O)c12` [Compound 12, luteolin-7-O-β-D-glucopyranoside] showed an IC50 of 7.28 ± 1.48 µM. In addition, the “ABTS Assay, Trolox equivalents” value in experiment [2] was 1.86 ± 0.075 ^de mol Trolox/mol. In addition, the “FRAP Assay, Trolox equivalents” value in experiment [3] is given as 1.31 ± 0.057 ^c mol Trolox/mol. Further, the inhibition at 20 µM on α-glucosidase stood at 21.9 ± 6%.

In turn, `O=C1O[C@H]([C@@H](O)CO)C(O)=C1O` [Ascorbic acid, reference compound] returned an IC50 in experiment [1] of 19.8 ± 1.27 µM. Moreover, the “ABTS Assay, Trolox equivalents” value in experiment [2] is on record as 1.66 ± 0.050 ^e mol Trolox/mol. The “FRAP Assay, Trolox equivalents” value in experiment [3] is 1.68 ± 0.063 ^b mol Trolox/mol.

`O=C(O)/C=C/c1ccc(O)c(O)c1` [Compound 5, caffeic acid] returned an IC50 in experiment [1] of 7.41 ± 0.74 µM. Besides, the “ABTS Assay, Trolox equivalents” value in experiment [2] is given as 2.15 ± 0.0619 ^abc mol Trolox/mol. Moreover, the “FRAP Assay, Trolox equivalents” value in experiment [3] is listed as 1.73 ± 0.080 ^b mol Trolox/mol. Besides, the inhibition at 20 µM at α-glucosidase (at a concentration of 20 μM) is < 50%. Moreover, the “glucose uptake in 3T3-L1 adipocytes” value in the experiment with 3T3-L1 adipocytes (compounds at 20 μM, 48 h, versus control) is “weak effect”.

In the case of `COc1cc(O)cc(O)c1C(C)=O` [Compound 1, 4,6-dihydroxy-2-methoxyacetophenone], the IC50 in experiment [1] is > 80 µM. Further, the “ABTS Assay, Trolox equivalents” value in experiment [2] is on record as 2.40 ± 0.16 ^a mol Trolox/mol. Further, the inhibition at 20 µM on α-glucosidase (at a concentration of 20 μM) is < 50%.

Take `COc1cc(-c2cc(=O)c3c(O)cc(O)cc3o2)cc(OC)c1O` [Compound 10, tricin]: the IC50 in experiment [1] was > 80 µM. In experiment [2], the “ABTS Assay, Trolox equivalents” value is recorded as 1.64 ± 0.14 ^e mol Trolox/mol. The inhibition at 20 µM at α-glucosidase turned out to be 20.8 ± 7.3%.

In the case of `COc1cc(/C=C/C(=O)OCC(O)CO)ccc1O` (centres unmarked) [Compound 6, 1-O-feruloylglycerol], in experiment [1], the IC50 was > 80 µM. Besides, the “ABTS Assay, Trolox equivalents” value in experiment [2] is recorded as 1.80 ± 0.0462 ^de mol Trolox/mol. Moreover, in experiment [3], the “FRAP Assay, Trolox equivalents” value is listed as 0.012 ± 0.014 ^d mol Trolox/mol. In addition, the inhibition at 20 µM on α-glucosidase (at a concentration of 20 μM) was determined as 5.3 ± 1.8%.

In the case of `CC(=O)c1c(O)cc(O)cc1OC1OC(CO)C(O)C(O)C1O` [Compound 3, 2,4,6-trihydroxy-acetophenone 2-O-β-D-glucoside], the IC50 in experiment [1] was > 80 µM. Further, in experiment [2], the “ABTS Assay, Trolox equivalents” value was 1.97 ± 0.079 ^cd mol Trolox/mol. Besides, on α-glucosidase (at a concentration of 20 μM), the inhibition at 20 µM was < 50%.

As for `O=C(O)/C=C/c1ccc(O)cc1` [Compound 4, p-coumaric acid], the IC50 in experiment [1] is > 80 µM. In experiment [2], the “ABTS Assay, Trolox equivalents” value is recorded as 2.28± 0.10 ^ab mol Trolox/mol. For the same molecule, at α-glucosidase, the inhibition at 20 µM is < 50%.

Regarding `O=C(/C=C/c1ccc(O)cc1)OCC(O)COC(=O)/C=C/c1ccc(O)cc1` [Compound 7, 1,3-O-di-p-coumaroylglycerol], the IC50 in experiment [1] was > 80 µM. Besides, in experiment [2], the “ABTS Assay, Trolox equivalents” value is on record as 1.99 ± 0.11 ^cd mol Trolox/mol. The inhibition at 20 µM on α-glucosidase (at a concentration of 20 μM) turned out to be 46.1 ± 2.4%.

Take `COc1cc(OC2OC(CO)C(O)C(O)C2O)cc(O)c1C(C)=O` [Compound 2, 4-O-β-D-glucopyranosyl-2-hydroxy-6-methoxyacetophenone]: the IC50 in experiment [1] was > 80 µM. In experiment [2], the “ABTS Assay, Trolox equivalents” value is given as 0.87 ± 0.11 ^f mol Trolox/mol. Besides, the inhibition at 20 µM at α-glucosidase (at a concentration of 20 μM) is 22.6 ± 3.4%.

For `O=C(/C=C/c1ccc(O)cc1)OCC(O)COC(=O)/C=C/c1ccc(O)c(O)c1` (centres unmarked) [Compound 8, 1-O-p-coumaroyl-3-O-caffeoylglycerol], the IC50 in experiment [1] worked out at 14.8 ± 1.83 µM. Moreover, the “ABTS Assay, Trolox equivalents” value in experiment [2] was 1.70 ± 0.066 ^e mol Trolox/mol. The “FRAP Assay, Trolox equivalents” value in experiment [3] is given as 1.42 ± 0.073 ^c mol Trolox/mol. The inhibition at 20 µM on α-glucosidase (at a concentration of 20 μM) turned out to be 67%.
